Results published in article PMC3246389 (Nature biotechnology, 2011).

Experiments:
GABAB receptor = GABAB receptor (Homo sapiens, UniProt Q9UBS5); assay type: binding, rat and human; settings: control ligand tested at the highest concentration
[1] = read-out: Kd, literature value; SPR on immobilized GM1; cited from earlier work

Sequence of GABAB receptor (Q9UBS5 1-844 isoform Q9UBS5-2): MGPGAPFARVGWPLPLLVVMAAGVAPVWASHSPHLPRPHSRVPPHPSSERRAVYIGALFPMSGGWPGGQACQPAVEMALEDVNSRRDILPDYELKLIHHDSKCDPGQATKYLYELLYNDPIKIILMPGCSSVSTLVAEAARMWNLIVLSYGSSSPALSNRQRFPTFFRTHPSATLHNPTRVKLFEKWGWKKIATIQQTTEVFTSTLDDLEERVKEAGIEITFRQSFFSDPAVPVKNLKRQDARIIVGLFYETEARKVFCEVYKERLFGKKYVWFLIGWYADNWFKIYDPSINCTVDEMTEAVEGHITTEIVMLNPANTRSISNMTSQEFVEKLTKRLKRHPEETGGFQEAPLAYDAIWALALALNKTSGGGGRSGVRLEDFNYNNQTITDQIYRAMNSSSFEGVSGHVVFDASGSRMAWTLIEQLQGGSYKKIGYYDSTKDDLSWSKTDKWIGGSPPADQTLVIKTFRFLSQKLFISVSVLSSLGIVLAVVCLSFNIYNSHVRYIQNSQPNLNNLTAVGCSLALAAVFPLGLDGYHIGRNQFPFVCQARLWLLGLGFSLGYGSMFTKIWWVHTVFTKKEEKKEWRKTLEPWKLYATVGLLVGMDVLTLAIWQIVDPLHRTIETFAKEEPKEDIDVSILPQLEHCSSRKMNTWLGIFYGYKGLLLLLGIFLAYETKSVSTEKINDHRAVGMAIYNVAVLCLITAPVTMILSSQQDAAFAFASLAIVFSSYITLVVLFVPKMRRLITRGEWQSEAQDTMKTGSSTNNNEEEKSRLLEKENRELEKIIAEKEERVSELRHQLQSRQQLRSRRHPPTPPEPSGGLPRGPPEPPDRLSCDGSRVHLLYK
Sequence of GABAB receptor (O88871 41-940 partner): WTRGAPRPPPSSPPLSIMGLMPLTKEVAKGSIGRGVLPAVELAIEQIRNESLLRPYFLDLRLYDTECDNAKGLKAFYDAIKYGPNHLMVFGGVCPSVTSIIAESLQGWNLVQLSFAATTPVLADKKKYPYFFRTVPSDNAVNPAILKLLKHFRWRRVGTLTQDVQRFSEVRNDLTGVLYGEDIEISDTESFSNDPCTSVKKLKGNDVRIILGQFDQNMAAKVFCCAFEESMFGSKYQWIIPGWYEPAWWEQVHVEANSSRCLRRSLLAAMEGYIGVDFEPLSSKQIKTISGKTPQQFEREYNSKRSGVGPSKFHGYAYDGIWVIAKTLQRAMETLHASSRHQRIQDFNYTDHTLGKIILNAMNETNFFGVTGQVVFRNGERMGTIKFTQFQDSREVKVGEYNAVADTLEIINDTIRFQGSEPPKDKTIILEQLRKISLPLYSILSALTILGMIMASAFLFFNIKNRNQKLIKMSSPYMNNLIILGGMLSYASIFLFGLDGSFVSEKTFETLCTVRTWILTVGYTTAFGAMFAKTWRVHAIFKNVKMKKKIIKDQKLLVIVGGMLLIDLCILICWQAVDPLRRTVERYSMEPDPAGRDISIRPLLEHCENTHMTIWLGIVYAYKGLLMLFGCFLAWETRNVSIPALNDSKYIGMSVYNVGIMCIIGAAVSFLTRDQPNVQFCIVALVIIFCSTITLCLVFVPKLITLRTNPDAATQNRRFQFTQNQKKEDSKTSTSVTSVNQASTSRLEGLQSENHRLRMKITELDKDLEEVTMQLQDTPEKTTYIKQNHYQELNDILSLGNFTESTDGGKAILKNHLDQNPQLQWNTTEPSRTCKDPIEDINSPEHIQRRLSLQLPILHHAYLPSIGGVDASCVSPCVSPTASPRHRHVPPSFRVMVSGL

BSI binding curve (negative control) (GABAB receptor)	Compound	Kd [1]
negative control	C[C@H](N)C(=O)O [L-alanine]	–
negative control	CC(C)CCC[C@@H](C)[C@H]1CC[C@H]2[C@@H]3CC=C4C[C@@H](O)CC[C@]4(C)[C@H]3CC[C@]12C [cholesterol]	–
–	Cholera toxin B subunit: cholera toxin B subunit, soluble protein that binds GM1; purchased from Sigma	4 pM
